Laboratory results: patent US20220202912A1, “Polypeptides in Preparation of Drugs for Treatment or Prevention of Rheumatoid Arthritis” (priority 2011, published 2022)
Several values for one entry are separate records, joined by “and”; a condition that tells them apart may be missing. Equal entries are not always repeated. Where no end group is shown, it is not given here.

Assays:
TNF-α [1] = assay: in vivo imaging of TNF-α expression, carrageenan-induced TNF-luc mice; design: species or system BALB/c transgenic TNF-luc mice; details: Adalimumab 8 mg/kg, mPEG-SC20k-HM-3 20 mg/kg sc
Description: At 8 time points, hour 0, hour 2, hour 4, hour 8, hour 12, hour 24, hour 48 and hour 72 after modeling, fluorescein is injected intraperitoneally into each group of mice. After the mice are lightly anesthetized with ether, the mice are fixed within 5-20 min and put into an in vivo imager, the imager is covered with an instrument lid, on-fluro and om-photo names in the desktop imaging interface of the computer are clicked, and the expose button is clicked to complete the fluorescence and white light photos of mice in vivo imaging. The specific imaging principle, operation steps, image processing and output are the same as those in the previous embodiment.
In vivo imaging results of mice are processed with Carestream Molecular Imaging Software 5.3, and the luminous area is used as the determination of results. The fluorescence areas of the groups after optimization are compared.
(§1) (1) Imaging principle: Fluorescein substrate is injected intraperitoneally, and binds to luciferase carried on TNF-α protein to catalyze luminescence. Through the Luciferase fluorescent reporter group on TNF, the change of the fluorescence area in mice is observed, and the expression of TNF-α is evaluated, so as to evaluate the impact of mPEG-SC20k-HM-3 on the expression of TNF-α.
(§2) (2) Operation steps: Start the Carestreama in vivo imager, open the MI software, click the Capture button, and set photographing conditions. In the on-flour fluorescence mode, set the parameters X Binning. 2 pixels, Y Binning. 2 pixels; Illumination Source: Multi-wavelength; f-stop: 2.50; field of view (FOV) (mm): 120; focal plane (mm): Tray. Excitation filter: 430 nm, emission filter: 535 nm; exposure time: 30s. Click the Expose button to photograph fluorescence. Under the om-photo name, set the parameters X Binning. 0 pixels, Y Binning. 0 pixels; Illumination Source: None; f-stop: 2.50; FOV (mm): 120; focal plane (mm): Tray. Excitation filter: 0 nm, emission filter: 0 nm; exposure time: 0.175 s. Click the Expose button to photograph white light.
(§3) (3) Image processing and output: Analyze and adjust photos of fluorescence function imaging and white light structure imaging to the best, and the FOV is consistent. Click Window→Tie, Display→Invert, Image Display→overlay→Transparency for image stacking. In the image output process, in a navigation panel, click Annotation→Width/Heigh→Scale Analysis Image for setting, click Add Annotation Bar for adding a title, click Add Intensity Scale for adding a ruler, and set Horizontal, Size, Style, Number of Significant Dig, and Horizontal/Vertical Length. Output a picture in Tiff format.

TNF-α [2] = assay: in vivo imaging of TNF-α expression, AIA transgenic TNF-luc mice; design: species or system BALB/c transgenic TNF-luc mice; details: Adalimumab 8 mg/kg; for Fluorescence intensity (in vivo imaging): mPEG-SC20k-HM-3 20 mg/kg sc; for in vivo fluorescence densities: mPEG-SC20k-HM-3 20 mg/kg
Description: (§4) […] After the mice are lightly anesthetized with ether, the mice are fixed within 5-20 min and put into an in vivo imager, the imager is covered with an instrument lid, on-fluro and om-photo names in the desktop imaging interface of the computer are clicked, and the expose button is clicked to complete the fluorescence and white light photos of mice in vivo imaging.
as §1, §2, §3

TNF-α [3] = assay: immunohistochemistry of TNF-α in ankle joints, AIA transgenic TNF-luc mice; type: in vivo, BALB/c transgenic TNF-luc mice; details: Adalimumab 8 mg/kg, mPEG-SC20k-HM-3 20 mg/kg
Description: Changes of expression of TNF-α and IL-6 are analyzed by HE staining and immunohistochemistry in the ankle joint, spleen and thymus of the mice. Observation and photographing are performed under the FOVs of ×200 and ×400 times respectively, 5 FOVs are taken randomly for each picture, and data statistics is performed.

TNF-α [4] = assay: in vivo imaging of TNF-α expression, CIA transgenic TNF-luc mice; design: species or system BALB/c transgenic TNF-luc mice; details: day 36; Adalimumab 8 mg/kg, mPEG-SC20k-HM-3 20 mg/kg
Description: as §4, with “imaging. The specific imaging principle, operation steps, image processing and output are the same as those in the previous embodiment.” for “imaging.”

TNF-α [5] = assay: immunohistochemistry of TNF-α in ankle joints, CIA transgenic TNF-luc mice; type: in vivo, BALB/c transgenic TNF-luc mice; details: Adalimumab 8 mg/kg, mPEG-SC20k-HM-3 20 mg/kg
Description: Determining criteria: The experimental results are determined based on the proportion of positive cells in all tissue cells and the staining intensity of positive cells: A: scoring is performed based on the number of chromogenic cells, 1 point is given when the proportion of the number of positive cells is less than ⅓, 2 points are given when the proportion of the number of positive cells is ⅓-⅔, and 3 points are given when the proportion of the number of positive cells is greater than or equal to ⅔. B: Based on the color depth of cells, 0 point is given when no cells have positive reaction, 1 point is given when cells are light yellow, 2 points are given when the cells are light brown, and 3 points are given when the cells are dark brown. Point product=A×B. The result is expressed in point product.

Adalimumab [reference compound]
Fluorescence intensity (in vivo imaging) (TNF-α [1]; 0 h): 18.048 ± 4.770 ×10^5 | Fluorescence intensity (in vivo imaging) (TNF-α [1]; 2 h): 18.480 ± 4.887 ×10^5 | Fluorescence intensity (in vivo imaging) (TNF-α [1]; 4 h): 20.209 ± 2.261 ×10^5 | Fluorescence intensity (in vivo imaging) (TNF-α [1]; 8 h): 25.70±2.67 ×10^5 and 25.703 ± 2.668 ×10^5 | Fluorescence intensity (in vivo imaging) (TNF-α [1]; 12 h): 22.40±5.06 ×10^5 and 22.396 ± 5.065 ×10^5 | Fluorescence intensity (in vivo imaging) (TNF-α [1]; 24 h): 13.89±8.53 ×10^5 and 13.891 ± 0.853 ×10^5 | Fluorescence intensity (in vivo imaging) (TNF-α [1]; 48 h): 14.76±3.58 ×10^5 and 14.765 ± 3.580 ×10^5 | Fluorescence intensity (in vivo imaging) (TNF-α [1]; 72 h): 19.87±3.92 ×10^5 and 19.868 ± 3.924 ×10^5 | Fluorescence intensity (in vivo imaging) (TNF-α [2]; 17 d (treatment starts)): 46.746 ± 3.457 ×10^5 | Fluorescence intensity (in vivo imaging) (TNF-α [2]; 32 d): 26.446 ± 2.659 ×10^5 | in vivo fluorescence densities (TNF-α [2]; day 17, as printed in text): 46.75±3.46 10^6 | in vivo fluorescence densities (TNF-α [2]; day 32, as printed in text): 26.45±2.66 10^6 | immunohistochemical score of TNF-α in ankle joint cavity (TNF-α [3]): 0.246±0.110 | in vivo fluorescence densities (TNF-α [4]): 20.76±4.43 10^5 | immunohistochemical score of TNF-α in ankle joint cavity (TNF-α [5]): 0.160±0.109

mPEG-SC20k-Ile-Val-Arg-Arg-Ala-Asp-Arg-Ala-Ala-Val-Pro-Gly-Gly-Gly-Gly-Arg-Gly-Asp ({mPEG‑SC 20k}-IVRRADRAAVPGGGGRGD) [polypeptide III, No. 3]
Fluorescence intensity (in vivo imaging) (TNF-α [1]; 0 h): 10.851 ± 3.014 ×10^5 | Fluorescence intensity (in vivo imaging) (TNF-α [1]; 2 h): 13.880 ± 5.266 ×10^5 | Fluorescence intensity (in vivo imaging) (TNF-α [1]; 4 h): 11.926 ± 2.119 ×10^5 | Fluorescence intensity (in vivo imaging) (TNF-α [1]; 8 h): 19.37±3.41 ×10^5 and 19.367 ± 3.408 ×10^5 | Fluorescence intensity (in vivo imaging) (TNF-α [1]; 12 h): 18.65±9.09 ×10^5 and 18.653 ± 9.093 ×10^5 | Fluorescence intensity (in vivo imaging) (TNF-α [1]; 24 h): 12.65±2.39 ×10^5 and 12.654 ± 2.390 ×10^5 | Fluorescence intensity (in vivo imaging) (TNF-α [1]; 48 h): 14.37±6.24 ×10^5 and 14.037 ± 6.238 ×10^5 | Fluorescence intensity (in vivo imaging) (TNF-α [1]; 72 h): 13.40±1.17 ×10^5 and 13.402 ± 1.171 ×10^5 | Fluorescence intensity (in vivo imaging) (TNF-α [2]; 17 d (treatment starts)): 41.604 ± 6.080 ×10^5 | Fluorescence intensity (in vivo imaging) (TNF-α [2]; 32 d): 31.956 ± 1.170 ×10^5 | in vivo fluorescence densities (TNF-α [2]; day 17, as printed in text): 41.6±1.68 10^6 | in vivo fluorescence densities (TNF-α [2]; day 32, as printed in text): 31.96±1.17 10^6 | immunohistochemical score of TNF-α in ankle joint cavity (TNF-α [3]): 0.149±0.047 | in vivo fluorescence densities (TNF-α [4]): 19.02±9.69 10^5 | immunohistochemical score of TNF-α in ankle joint cavity (TNF-α [5]): 0.143±0.055
